Source: patent publication US20050079495A1, “Modified tachykinin receptors” (priority 2000, published 2005)

How the values were obtained:
[1] = system: functional G-protein Ca^2+ linked pathway; experiment: Fura-2 calcium imaging, UTP challenge of COS-7 cells; format: cell-based, monkey; details: UTP 3μM, 1 min
Method: Coverslips containing cells were prepared and maintained as described. Cultured cells were washed twice in a Krebs-Hepes extra-cellular medium buffer (EM, composition in mM: NaCl 118, KCl 4.7, MgSO4 1.2, CaCl2 1.2, KH2PO4 1.2, Hepes 10, glucose 11 and BSA 0.1%, (pH 7.2 at 20° C., (Rossant, et al Endocrinology, 140, 1525-1536), and then loaded with Fura-2 (Rossant, et al Endocrinology, 140, 1525-1536) by incubation for 3 h at 20° C. with EM containing Fura-2-AM (2 μM, Molecular Probes). This procedure enables the cells to load with Fura-2-AM, which becomes hydrolysed to the free acid form once inside the intact cells. After loading, coverslips were mounted into imaging chambers and perfused with EM to remove extra-cellular Fura-2-AM and to allow hydrolysis of intracellular Fura-2-AM to occur. Measurements of changes in the free [Ca^2+]i in individual cells were made from the fluorescence ratio (excitations 340 nm/380 nm, emission >510 nm) using a Spectral Wizard monochromator, cooled integrating CCD camera and a dedicated suite of software (Merlin, Life Sciences Resources, Cambridge, UK). Data are expressed as ratio units 340/380.
Genes encoding wild type sense, wild type anti-sense and variant NK-1 receptors described above were transiently transfected into COS-7 (monkey kidney) cell lines.

[2] = system: wild type anti-sense transfected COS-7 cells; experiment: Fura-2 calcium imaging, COS-7 cells transfected with wild type anti-sense construct (negative control); format: cell-based, monkey; details: COS-7 cells expressing wild type anti-sense, substance P 1 nM
Method: The resulting cDNA was excised from the parental vector, spliced into a mammalian expression vector, pCMV3.1 (Invitrogen). This cDNA was in an orientation which allowed expression of the hNK-1vR polypeptide. Stock plasmid was prepared by amplification in E. coli and the plasmid DNA subsequently purified using a Qiagen endonuclease free DNA preparation kit, and the fidelity of the construct confirmed by DNA sequencing. The nucleic acid sequence of the cDNA is SEQ ID N^o6 (FIG. 2) and the translated protein sequence is SEQ ID N^o5 (FIG. 1). Similarly control (negative control) constructs were prepared whereby wild type and variant HNK-1R cDNA was spliced into the vector in an opposite configuration to that described above. A further control (positive control) was prepared by ligation of the parental wild type hNK-1R cDNA into the vector in a manner which would allow hNK-1R polypeptide to be expressed. […]
Coverslips containing cells were prepared and maintained as described. […] Measurements of changes in the free [Ca^2+]i in individual cells were made from the fluorescence ratio (excitations 340 nm/380 nm, emission >510 nm) using a Spectral Wizard monochromator, cooled integrating CCD camera and a dedicated suite of software (Merlin, Life Sciences Resources, Cambridge, UK). Data are expressed as ratio units 340/380. […]

| Compound | [Ca^2+]i response to UTP challenge [1] | Ca^2+ response to substance P challenge [2] |
| --- | --- | --- |
| O=c1ccn([C@@H]2O[C@H](COP(=O)(O)OP(=O)(O)OP(=O)(O)O)[C@@H](O)[C@H]2O)c(=O)[nH]1 [UTP] | caused a [Ca^2+]i response |  |
| H-Arg-Pro-Lys-Pro-Gln-Gln-Phe-Phe-Gly-Leu-Met-NH2 [substance P] |  | failed to invoke a Ca^2+ response |
